Measurements from patent US12534748B2, “Engineered beta-subunit of tryptophan synthase for production of non-canonical amino acids” (California Institute of Technology, priority 2015, dated 2026).
Numbering of substitutions follows the chain as printed.

What was measured:
[1] = test system: Thermococcus kodakarensis TrpB, wild type (literature); settings: cited from earlier work
[2] = molecular target: T1, Pyrococcus furiosus tryptophan synthase complex PfTrpS (PfTrpA + PfTrpB) (Pyrococcus furiosus, UniProt Q8U093); assay: Tryptophan formation from L-serine and indole, kinetics of PfTrpS complex; format: biochemical
T1 sequence (Q8U093 with tags, fused parts or gaps): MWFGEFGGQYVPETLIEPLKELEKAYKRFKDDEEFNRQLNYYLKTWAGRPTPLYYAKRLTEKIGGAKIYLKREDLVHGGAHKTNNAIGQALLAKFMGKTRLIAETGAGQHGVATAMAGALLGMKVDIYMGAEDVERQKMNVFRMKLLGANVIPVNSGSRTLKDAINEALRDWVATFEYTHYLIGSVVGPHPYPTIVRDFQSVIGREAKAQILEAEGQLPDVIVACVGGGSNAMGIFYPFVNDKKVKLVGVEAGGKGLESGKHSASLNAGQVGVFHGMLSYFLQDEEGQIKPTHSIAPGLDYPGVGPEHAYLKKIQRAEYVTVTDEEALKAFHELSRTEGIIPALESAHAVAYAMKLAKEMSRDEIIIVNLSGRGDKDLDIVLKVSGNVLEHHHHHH
T1 sequence (Q8U094 1-248 partner): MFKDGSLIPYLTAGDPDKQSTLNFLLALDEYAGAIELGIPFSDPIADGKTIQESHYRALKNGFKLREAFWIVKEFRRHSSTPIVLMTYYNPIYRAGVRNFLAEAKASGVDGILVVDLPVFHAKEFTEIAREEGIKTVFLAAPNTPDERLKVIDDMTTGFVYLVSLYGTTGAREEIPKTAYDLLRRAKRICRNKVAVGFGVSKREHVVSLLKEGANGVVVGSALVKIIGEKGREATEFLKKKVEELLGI
Method: (§1) Cloning, Expression, and Purification of PfTrpA and PfTrpB. The genes encoding PfTrpB (UNIPROT ID Q8U093) and PfTrpA (UNIPROT ID Q8U094) were obtained as gBlocks and cloned into pET22(b)+ for expression in E. coli BL21 E. cloni EXPRESS cells (Lucigen). Heterologous protein expression of PfTrpA and PfTrpB was performed in Terrific Broth with 100 μg/mL ampicillin (TBamp) and induced with 500 mM IPTG (final concentration 1 mM). PfTrpB was purified via a HisTrap HP column. PfTrpA was purified via a Q HP HiTrap column (flow-through), followed by ammonium sulfate precipitation, and hydrophobic interaction chromatography on a phenyl Sepharose HP HiTrap column (FIG. 3).
(§2) Kinetics and UV-Vis Spectroscopy.
Selection of the Parent Enzyme, TrpB, from Pyrococcus furiosus.

[3] = test system: Thermotoga maritima TrpB, wild type (literature); settings: kinetics measured at 80° C., cited from earlier work
[4] = molecular target: T2, Pyrococcus furiosus TrpB variant M144T N166D (Table 6 prints N166T), SEQ ID NO: 20 (Pyrococcus furiosus, UniProt Q8U093, M144T/N166D); assay: Tryptophan formation from L-serine and indole, kinetics of PfTrpB double mutant
T2 sequence (Q8U093 with tags, fused parts or gaps M144T/N166D): T1 sequence (Q8U093 with tags, fused parts or gaps) with M144T, N166D
Method: Data were collected between 550 and 250 nm on a UV1800 Shimadzu spectrophotometer (Shimadzu) using 0.25-20 μM of enzyme in 200 mM potassium phosphate (pH 8.0) in a quartz cuvette. Samples were incubated at 75° C. for >3 min to ensure a stable temperature was reached. PfTrpB activity (kcat) was measured by monitoring tryptophan formation at 290 nm using Δe290=1.89 mM^−1·cm^−1.

[5] = molecular target: T3, Pyrococcus furiosus TrpB variant PfTrpB^2G9 (T292S), SEQ ID NO: 10 (Pyrococcus furiosus, UniProt Q8U093, T292S); assay: Tryptophan formation from L-serine and indole, kinetics of PfTrpB^2G9; format: biochemical
T3 sequence (Q8U093 with tags, fused parts or gaps T292S): T1 sequence (Q8U093 with tags, fused parts or gaps) with T292S
Method: as §1, §2

[6] = molecular target: T4, Pyrococcus furiosus TrpB variant PfTrpB^4D11 (E17G, I68V, T292S, F274S, T321A), SEQ ID NO: 16 (Pyrococcus furiosus, UniProt Q8U093, E17G/F274S/I68V/T292S/T321A); assay: Tryptophan formation from L-serine and indole, kinetics of PfTrpB^4D11; format: biochemical; settings: 75° C.
T4 sequence (Q8U093 with tags, fused parts or gaps E17G/I68V/F274S/T292S/T321A): T1 sequence (Q8U093 with tags, fused parts or gaps) with E17G, I68V, F274S, T292S, T321A
Method: as §1, §2
PfTrpB^4D11 served as template for a final round of random mutagenesis, for which 1,144 clones were screened.

SMILES: c1ccc2[nH]ccc2c1 [indole]
- kcat [1]: 1.04 ± 0.03 s⁻¹
- Km ([1]; read-out: KM indole): 63 ± 5 µM
- kcat ([2]; 75° C.): 1.0 s⁻¹
- increase in catalytic efficiency for indole upon complexation ([2]; PfTrpS relative to PfTrpB): 12 fold
- Km ([2]; read-out: KM, indole, 75° C.): 20 µM
- kcat [3]: 4.2 s⁻¹
- Km ([3]; read-out: KM indole): 40 µM
- kcat ([4]; 75° C.): 0.83 s⁻¹
- kcat increase ([4]; M144T and N166D in PfTrpB): at least 2 fold
- kcat ([5]; 75° C.): 1.1 s⁻¹
- increase in kcat ([5]; compared with PfTrpB): 3.5 fold
- Km ([5]; read-out: KM, indole, 75° C.): 14 µM
- kcat [6]: 2.2 s⁻¹
- Km ([6]; read-out: KM, indole): 11 µM
